Experimental data published in US20080194456A1, “Compositions And Methods Related To An Intestinal Inflammation And Uses Therefor” (The General Hospital Corporation, priority 2004, published 2008).

Key:
[1] = test system: NOD2 mRNA expression in SW480 cells; experiment: Northern blot analysis of NOD2 mRNA expression in SW480 cells; assay type: cell-based, human
Experimental: FIGS. 8A-8D are photographs of Northern blots showing the effect of cytokines on Nod2 mRNA expression in SW480 cells. FIG. 8A is a Northern blot analysis of Nod2 mRNA expression in SW480 cells treated with 10 ng/ml of IFNγ, TNFα, IL-1β, IL-4 and TGFβ for six hours. As a positive control for CARD15/NOD2, human PBMC was used. […] In each of FIGS. 8A-8C, expression of Nod2 is shown relative to GAPDH expression.
Regulation of NOD2 expression had not been previously characterized. In order to better understand how NOD2 expression might vary in the context of mucosal inflammation, the effects of cytokines on epithelial NOD2 expression were studied using the SW480 cell line.

[2] = test system: grim-19 mRNA in Caco-2 cells; experiment: Real time RT-PCR of grim-19 mRNA in Caco-2 cells; assay type: cell-based, human; conditions: for grim-19 mRNA levels: Caco-2 cells harboring plasmid encoding siRNA
Experimental: Total RNA of IEC lines were extracted using Trizol (INVITROGEN) according to the manufacturer's instructions. For reverse transcription, 2 μg of total RNA was transcribed with RT PCR reagents provided in the SUPERSCRIPT FIRST-STRAND SYNTHESIS SYSTEM (INVITROGEN). Real time RT-PCR was performed in an ABI Prism 7000 Sequence Detector using SYBR Green JumpStart™ detection system. Briefly, 50 ng of the reversed transcribed cDNA were used for each PCR reaction with 200 nM of forward and reverse primers. Primers used for PCR had the following sequences: Forward 5-[…]-3, Reverse 5-[…]-3 (GRIM-19, 194 bp); Forward 5-[…]-3, Feverse 5-[…]-3 (glyceraldehyde-3-phosphate dehydrogenase [GAPDH], 440 bp). The following PCR program was used: 50° C. for 2 minutes, then 95° C. for 10 minutes followed by 40 cycles of 95° C. for 15 seconds, 60° C. for 15 seconds and 72° C. for 15 seconds. The threshold cycle (CT) values were obtained for the reactions reflecting quantity of the template in the sample. GRIM-19 Delta CT (ΔCT) was calculated by subtracting the GAPDH CT value from the GRIM-19 CT value and thus, represented the relative quantity of the target molecule after normalizing with the internal standard GAPDH. The GRIM-19 ΔCT values of Caco-2 cells infected with Salmonella, or transfected with pcDNA4/HisMAX-GRIM 19 were expressed as the percentage of GRIM-19 ΔCT values of control Caco-2 cells.

[3] = test system: S. typhimurium; conditions: for percentage of intracellular bacteria: transfected Caco-2 cells, two hour infection at MOI=10, one hour gentamicin, relative to untransfected Caco-2 cells = 100%, mean ±SEM
[4] = test system: NOD1 mRNA expression in SW480 cells; experiment: Northern blot analysis of NOD1 mRNA expression in SW480 cells treated with cytokines; assay type: cell-based, human; conditions: 10 ng/ml cytokine for six hours, Northern blot relative to GAPDH
Experimental: FIGS. 3A, B, C, D, E, and F are photographs showing Northern blots. […] Cells were treated with IFNγ for six hours. […] Cells were treated with 100 ng/ml IFNγ.
Regulation of NOD1 expression had not been described previously. […] The effect of IFNγ on NOD1 mRNA expression is time and concentration dependent manner as assessed by Northern blot analysis (FIG. 3C-3E).

[5] = test system: S. typhimurium; experiment: Bacterial invasion assay in HEK293 cells; assay type: cell-based, Salmonella enterica serovar Typhimurium; conditions: MDP-LD stimulated, two hour infection at MOI=10, compared to untransfected HEK293
Experimental: (§1) FIGS. 19A and 19B are graphs showing that GRIM-19 acts downstream of NOD2 and is required from NF-κB activation. […] NF-κB activity was determined in the absence or presence of 1 μg of MDP-LD. grim-19 mRNA level was measured by RT-PCR using specific primers. […] After a two hour period of infection with S. typhimurium at MOI=10, invasive bacteria were quantified as described above. * p<0.05
Invasion assays were performed with Salmonella enterica serovar Typhimurium or Escherichia coli TOP10 (Invitrogen). Cell monolayers were seeded in 24-well tissue culture plate with 10^5 cells/well and incubated for 20 hours. Monolayers were then infected in 1 ml of cell culture medium without antibiotic and with heat-inactivated FCS at a multiplicity of infection (MOI) of 10 bacteria per epithelial cell. After a two hour incubation period at 37° C., the monolayers were washed two times with PBS. Fresh cell culture medium containing 100 μg/ml of gentamicin (Sigma) was then added for one hour to kill any extracellular bacteria. The epithelial cells were then lysed with 1% Triton X-100 in deionized water. Samples of cell lysates were diluted and plated onto Luria-Bertani agar plates to determine the number of colony forming units (cfu), which corresponds to the number of intracellular bacteria.

[6] = test system: Caco-2 cells; conditions: Caco-2 cells transfected (overexpression), adenylate kinase release
[7] = test system: NOD2 protein in SW480 cells; experiment: Western blot of NOD2 protein in SW480 cells; assay type: cell-based, human; conditions: TNFα stimulation, time-dependent
Text: FIGS. 9A-9D depict NOD2 protein and its expression in SW480 cells. FIG. 9A is a schematic diagram showing the location of polypeptide sequences of NOD2 for immunization. FIGS. 9B, 9C, and 9D are photographs of Western blots. […] Untransfected COS7 cells were used as a negative control. […] Transiently transfected COS7 cells were immunoprecipitated with affinity purified (a.p.) anti-NOD2 antiserum (HM2559 a.p.), then immunoblotted with affinity purified biotinylated anti-NOD2 antiserum (b-HM2563 a.p.). […] As a positive control for NOD2 protein, lysates of COS7 cells transfected with pCMV FLAG-NOD2 was used.
Previous reported efforts had not been successful in detecting active NOD2 protein in vitro or in vivo. To detect the expression of active CARD15/NOD2 protein, anti-NOD2 sera (FIG. 9A) were generated. […] Increased production of TNFα has been noted in the mucosa of patients with Crohn's disease.

[8] = test system: NOD2 mediated NF-κB activation; experiment: NF-κB activation assay (luciferase reporter) in HEK293 cells; assay type: cell-based, human; conditions: HEK293 transfected with NOD2, 1 μg MDP-LD stimulation; relative to HEK293 transfected only with NOD2 or with pSUPER control vector
Experimental: as §1
HEK293 cells were transfected overnight with 1 ng of NOD2, 10 ng of grim-19 siRNA plus 1 ng of pIV luciferase reporter plasmid and renilla plasmid. At the same time, 1 μg of MDP-LD (Sigma) was added. After twenty-four hours, luciferase activity was measured using the Dual-Luciferase Reporter Assay System (Promega, Madison, Wis.) according to the manufacturer's instructions and normalized relative to renilla activity.

[9] = test system: grim-19 mRNA in HEK293 cells; experiment: RT-PCR of grim-19 mRNA in HEK293 cells; assay type: cell-based, human; conditions: HEK293 cells transfected with NOD2 and siRNA
Experimental: as §1
Total RNA of IEC lines were extracted using Trizol (INVITROGEN) according to the manufacturer's instructions. For reverse transcription, 2 μg of total RNA was transcribed with RT PCR reagents provided in the SUPERSCRIPT FIRST-STRAND SYNTHESIS SYSTEM (INVITROGEN). Real time RT-PCR was performed in an ABI Prism 7000 Sequence Detector using SYBR Green JumpStart™ detection system. […] The threshold cycle (CT) values were obtained for the reactions reflecting quantity of the template in the sample. GRIM-19 Delta CT (ΔCT) was calculated by subtracting the GAPDH CT value from the GRIM-19 CT value and thus, represented the relative quantity of the target molecule after normalizing with the internal standard GAPDH. The GRIM-19 ΔCT values of Caco-2 cells infected with Salmonella, or transfected with pcDNA4/HisMAX-GRIM 19 were expressed as the percentage of GRIM-19 ΔCT values of control Caco-2 cells.

[10] = test system: NOD1 protein in SW480 cells; experiment: Immunoprecipitation / Western blot of NOD1 protein in SW480 cells; assay type: cell-based, human; conditions: 100 ng/ml IFNγ, 6-48 hours, immunoprecipitation and immunoblot
Text: FIGS. 4A and 4B are photographs of Western blots. […] Anti-HA monoclonal antibody and biotinylated anti-CARD4/NOD1 antiserum (HM3847) detected NOD1 protein in COS7 cells transiently transfected with pCl CARD4-HA. […] Lysates from COS7 cells transiently transfected with pCl CARD4-HA were used as positive control.
To investigate the expression of NOD1 protein, anti-NOD1 sera were generated. The specificity and the sensitivity were confirmed using lysates from COS7 cells transiently transfected with the HA tagged CARD4 expression plasmid, pCl CARD4-HA (FIG. 4A). Consistent with the regulation of mRNA expression, NOD1 protein was also augmented in SW480 cells by IFNγ stimulation (FIG. 4B).

[11] = test system: human NOD1 promoter; experiment: NOD1 promoter luciferase reporter assay in SW480 cells; assay type: cell-based; conditions: SW480 cells transfected with pGL-2128, 100 ng/ml IFNγ for sixteen hours
Experimental: FIGS. 5A-5D are panels showing that IFNγ activated the human NOD1 promoter. FIG. 5A is a schematic diagram depicting the CARD4/NOD1 gene. Three IRF-1 binding motifs (IRF-1A, IRF-1B, and IRF-1C) are indicated as black boxes (▪). FIG. 5B is a schematic diagram depicting pGL Nod 1-luciferase deletion mutants. FIGS. 5C and 5D are graphs showing luciferase activity in SW480 cells were transiently transfected with 500 ng/well of the indicated expression plasmid. Ten hours after transfection, cells were cultured for a further sixteen hours with 100 ng/ml of IFNγ and then luciferase activity was measured. Black bars indicate the presence of IFNγ. White bars indicate the control conditions.
To identify the transcriptional regulation of NOD1, a series of luciferase reporter vectors was constructed, containing up to 2,128 base pairs corresponding to the DNA sequence upstream of base 1 and extending 21 base pairs into the first exon of NOD1 (FIGS. 5A and 5B). Luciferase activity in SW480 cells transfected with a vector containing the entire 2,128 base pairs upstream DNA (pGL-2128) was 125±16 fold higher than that obtained with the empty pGL3 basic vector.

**Q.** With C[C@@H]1C[C@@H]([C@H](O)CC2CC(=O)NC(=O)C2)C(=O)[C@@H](C)C1 [Cycloheximide] as the molecule, how does the “second peak of NOD2 mRNA expression (at twenty-four hours)” value ([1]; SW480 cells stimulated with 10 ng/ml TNFα) read?
**A.** inhibited

**Q.** How did the “grim-19 mRNA expression” value ([2]; Caco-2 cells stimulated with RA, IFN-α or both, real time RT-PCR) turn out when IFN-α was run?
**A.** did not show increased GRIM-19 expression

**Q.** And the “percentage of intracellular bacteria / invasive ability of S. typhimurium” value ([3]; Caco-2 cells stimulated with RA, IFN-α or both, two hour incubation)?
**A.** remained the same

**Q.** Which “NOD1 mRNA expression” value [4] does the source give for “IL-β: cytokine as printed in b202; figure legend b47 names IL-1β” here?
**A.** did not affect

**Q.** Which “invasive ability of S. typhimurium” value [5] does the source give for “NOD2: NOD2 protein expressed from Flag-tagged mammalian expression vector pCMVFlag-NOD2” here?
**A.** decreased

**Q.** And the cell death [6]?
**A.** did not induce cell death

**Q.** How did the “NOD1 mRNA expression” value [4] turn out when TGFβ was run?
**A.** did not affect

**Q.** How did the “NOD2 mRNA expression” value ([1]; SW480 cells, TNFα, concentration and time-dependent) turn out when TNFα was run?
**A.** up-regulated

**Q.** What about the NOD2 protein [7] of the same molecule?
**A.** upregulated

**Q.** For “grim-19 control siRNA: grim-19 control siRNA (sequence 2, atcgaggacttcgaggctc), which did not affect grim-19 mRNA (guide ATCGAGGACTTCGAGGCTC; chemistry not given here) [reference compound]”, which “grim-19 mRNA levels” value [2] is on record?
**A.** did not affect

**Q.** And the NF-κB activation [8]?
**A.** no significant effect

**Q.** And the “grim-19 mRNA level” value [9]?
**A.** did not knockdown

**Q.** And the “percentage of intracellular bacteria” value [3]?
**A.** not observed

**Q.** Which “grim-19 mRNA levels” value [2] does the source give for “grim-19 siRNA-1: siRNA expressed from pSUPER vector, 19-residue sequence 1-gtgtgggatactgcgagta specific to human grim-19 cDNA (guide GTGTGGGATACTGCGAGTA; expressed from pSUPER vector)” here?
**A.** significantly decreased

**Q.** And the NF-κB activation [8]?
**A.** 50%

**Q.** What about the “grim-19 mRNA level” value [9] of the same molecule?
**A.** significantly decreased

**Q.** What about the “invasive ability of S. typhimurium” value [5] of the same molecule?
**A.** reversed

**Q.** What about the “invasive ability of S. typhimurium in stimulated Caco-2 cells” value ([3]; Caco-2 cells stimulated with RA and IFN-α, compared with non-stimulated cells) of the same molecule?
**A.** restored

**Q.** And the “percentage of intracellular bacteria” value [3]?
**A.** 162.0%±43.8%

B1: IFNγ: cytokine interferon gamma added to SW480 cells (protein, UniProt P01579 24-161, looked up)
Interferon gamma: QDPYVKEAENLKKYFNAGHSDVADNGTLFLGILKNWKEESDRKIMQSQIVSFYFKLFKNFKDDQSIQKSVETIKEDMNVKFFNSNKKKRDDFEKLTNYSVTDLNVQRKAIHELIQVMAELSPAAKTGKRKRSQMLFRG
**Q.** For B1, which “NOD1 mRNA expression” value [4] is on record?
**A.** augmented

**Q.** What about the NOD1 protein [10] of the same molecule?
**A.** augmented

**Q.** What about the “increase of luciferase activity” value [11] of the same molecule?
**A.** 80%

B2: TNFβ: cytokine as printed in b202; figure legend b47 names TNFα (protein, UniProt P01374 35-205, looked up)
Lymphotoxin-alpha: LPGVGLTPSAAQTARQHPKMHLAHSTLKPAAHLIGDPSKQNSLLWRANTDRAFLQDGFSLSNNSLLVPTSGIYFVYSQVVFSGKAYSPKATSSPLYLAHEVQLFSSQYPFHVPLLSSQKMVYPGLQEPWLHSMYHGAAFQLTQGDQLSTHTDGIPHLVLSPSTVFFGAFAL
**Q.** How did the “NOD1 mRNA expression” value [4] turn out when B2 was run?
**A.** did not affect

B3: IL-4: cytokine added to SW480 cells (protein, UniProt P05112 25-153, looked up)
Interleukin-4: HKCDITLQEIIKTLNSLTEQKTLCTELTVTDIFAASKNTTEKETFCRAATVLRQFYSHHEKDTRCLGATAQQFHRHKQLIRFLKRLDRNLWGLAGLNSCPVKEANQSTLENFLERLKTIMREKYSKCSS
**Q.** B3 was tested. Which “NOD1 mRNA expression” value [4] did it give?
**A.** did not affect
